Test systems include SK-MEL-28 melanoma; UACC-257 melanoma; SR leukemia; SF-295 CNS; ACHN renal; A498 renal; UACC-62 melanoma; COLO 205 colon; MDA-MB-435; A549 NSCLC.
What all share (experiment): NCI-60 cell line screen, 48 h

Drawing on PubChem BioAssay (NCI), this text covers TGI and GI50 for eight compounds.

Molecules are shown by their SMILES. Several values for one entry are separate records, joined by “and”; a condition that tells them apart may be missing. Equal entries are not always repeated.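 The compound was tested at five concentrations on cells cultured in 96-well plates, with a 48-hour exposure period. GI50 marks 50% less growth. TGI: concentration producing complete growth inhibition.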

Turning to `COc1cc2c(cc1O)CCN[C@@]21CS[C@H]2c3c(OC(C)=O)c(C)c4c(c3C(COC1=O)N1C2C2NC(Cc3cc(C)c(OC)c(O)c32)[C@@H]1O)OCO4` (stereo partly drawn), the TGI was < 10 nM and 3.1e-07 µg/mL and 0.0045 µg/mL in the experiment with SK-MEL-28 melanoma; 14.7 nM and 2.1e-07 µg/mL in the experiment with UACC-257 melanoma; 1.09 µM and 5.17 µg/mL in the experiment with SF-295 CNS; 12.9 µM and 2e-06 µg/mL and 0.0045 µg/mL in the experiment on ACHN renal; < 10 nM and 6.8e-07 µg/mL and 0.0045 µg/mL in the experiment on A498 renal; 4.5 ng/mL in the experiment on UACC-62 melanoma. Also, the TGI was < 10 nM and 1.9e-07 µg/mL and 0.0045 µg/mL in the experiment on COLO 205 colon; less than 0.01 µM in the experiment on MDA-MB-435; 10.4 µM in the experiment on A549 NSCLC. Further, the GI50 is 4.5 ng/mL in the experiment with SR leukemia; 4.5 ng/mL in the experiment on SF-295 CNS; 4.5 ng/mL in the experiment with UACC-62 melanoma; 4.5 ng/mL in the experiment with COLO 205 colon; 0.000368 ng/mL with A549 NSCLC.

In the case of `OC[C@H]1C[C@](O)(c2ccccc2Cl)[C@@H](c2ccccc2Cl)O1`, the GI50 was 26.4 µM with SK-MEL-28 melanoma; 19 µM in the experiment with UACC-257 melanoma; 16.9 µM in the experiment on SR leukemia; 27.1 µM in the experiment with SF-295 CNS; 27.4 µM with ACHN renal; 22.9 µM in the experiment with A498 renal. Further, the GI50 with UACC-62 melanoma was 16.5 µM; with COLO 205 colon it was 14.7 µM; with MDA-MB-435, 16.3 µM; in the experiment on A549 NSCLC, 22.9 µM. Moreover, the TGI is 79.6 µM in the experiment on SK-MEL-28 melanoma; 42.6 µM in the experiment on UACC-257 melanoma; 41.3 µM in the experiment on SR leukemia; 94.6 µM with SF-295 CNS; 91.2 µM with ACHN renal; 59.2 µM in the experiment with A498 renal. Further, the TGI in the experiment with UACC-62 melanoma turned out to be 33.6 µM; in the experiment with COLO 205 colon it was 34.6 µM; in the experiment with MDA-MB-435, 33.3 µM; in the experiment on A549 NSCLC, 58.1 µM.

Consider `Oc1ccccc1/C=N\NC(=S)Nc1ccc(F)cc1`, for which the GI50 is 2 µM in the experiment with SK-MEL-28 melanoma; 2.68 µM in the experiment on UACC-257 melanoma; 0.415 µM with SR leukemia; 1.38 µM with SF-295 CNS; 0.674 µM in the experiment on ACHN renal; 4.65 µM in the experiment on A498 renal. Besides, the GI50 was 0.95 µM with UACC-62 melanoma, 4.8 µM with COLO 205 colon, 0.404 µM in the experiment on MDA-MB-435 and 2.33 µM in the experiment on A549 NSCLC. The TGI with SK-MEL-28 melanoma is greater than 100 µM; with UACC-257 melanoma, greater than 65.3 µM; in the experiment on SR leukemia it was 10.5 µM; in the experiment on ACHN renal, greater than 100 µM; with A498 renal it was 49.3 µM; in the experiment on UACC-62 melanoma, 4 µM. The TGI with COLO 205 colon was greater than 43 µM; with MDA-MB-435, greater than 96.6 µM; in the experiment on A549 NSCLC, greater than 100 µM.

`COc1cc2c3c(c4ccc(O)cc4c2cc1OC)[C@@H](O)[C@@H]1CCCN1C3`: the TGI in the experiment on SK-MEL-28 melanoma is less than 0.001 µM; with UACC-257 melanoma, 0.0588 µM; in the experiment with SR leukemia, 0.215 µM; in the experiment with SF-295 CNS it was 0.0655 µM; in the experiment on ACHN renal it was 0.0381 µM; in the experiment with A498 renal it was 0.00625 µM. Further, the TGI is 0.0807 µM in the experiment with UACC-62 melanoma, 0.145 µM in the experiment with COLO 205 colon, 0.0072 µM with MDA-MB-435 and 0.0026 µM with A549 NSCLC.

`CN1CCN(Cc2ccc(NC(=O)c3cncc(C#Cc4c(N)ncc5ccccc45)c3)cc2C(F)(F)F)CC1`: the GI50 is 0.767 µM with SK-MEL-28 melanoma; 0.773 µM in the experiment with UACC-257 melanoma; 0.259 µM with SR leukemia; 0.786 µM in the experiment on SF-295 CNS; 0.569 µM in the experiment on ACHN renal; 0.676 µM with A498 renal. Besides, the GI50 was 0.791 µM in the experiment with UACC-62 melanoma, 0.213 µM with COLO 205 colon, 0.291 µM in the experiment on MDA-MB-435 and 0.668 µM in the experiment with A549 NSCLC. The TGI in the experiment on SK-MEL-28 melanoma stood at 1.48 µM; in the experiment on UACC-257 melanoma, 1.6 µM; in the experiment with SR leukemia, 3.7 µM; in the experiment with SF-295 CNS, 1.57 µM; in the experiment with ACHN renal, 1.17 µM; in the experiment on A498 renal, 1.35 µM. Also, the TGI in the experiment on UACC-62 melanoma was found to be 1.55 µM; with COLO 205 colon, 0.812 µM; in the experiment with MDA-MB-435, 0.968 µM; with A549 NSCLC it was 1.45 µM.

`Cc1cnc(C(=O)Nc2nc3ccc(S(=O)(=O)Nc4ccc(C(C)(C)C)cc4)cc3[nH]2)cn1`: the GI50 in the experiment on SK-MEL-28 melanoma is 1.17 µM; with UACC-257 melanoma, 2.39 µM; in the experiment with SR leukemia, 0.133 µM; in the experiment on SF-295 CNS it was 0.401 µM; in the experiment on ACHN renal it was 0.518 µM; in the experiment on A498 renal, 0.288 µM. Besides, the GI50 is 0.537 µM with UACC-62 melanoma, 0.503 µM in the experiment on COLO 205 colon, 0.135 µM in the experiment on MDA-MB-435 and 0.652 µM in the experiment with A549 NSCLC. Moreover, the TGI turned out to be 14 µM with SK-MEL-28 melanoma; 22.7 µM with UACC-257 melanoma; 12.5 µM in the experiment on SR leukemia; 4.21 µM in the experiment on SF-295 CNS; 14.2 µM with ACHN renal; 1.31 µM with A498 renal. Moreover, the TGI in the experiment on UACC-62 melanoma stood at 13 µM; in the experiment with COLO 205 colon, 7.74 µM; with MDA-MB-435, 0.434 µM; with A549 NSCLC, 9.14 µM.

For `CSc1ccc(-c2cn3ccsc3n2)cc1`, the GI50 in the experiment on SK-MEL-28 melanoma is 27 µM; in the experiment with UACC-257 melanoma, 28.7 µM; with SR leukemia, 1.25 µM; in the experiment on SF-295 CNS, 19 µM; in the experiment with ACHN renal, 5.84 µM; with A498 renal, 55.6 µM. Besides, the GI50 with UACC-62 melanoma is 25.7 µM; with COLO 205 colon, 14.4 µM; with MDA-MB-435, 12.6 µM; in the experiment with A549 NSCLC it was 12.9 µM. Moreover, the TGI with SK-MEL-28 melanoma was greater than 100 µM; with UACC-257 melanoma it was greater than 100 µM; with SR leukemia, greater than 60.8 µM; in the experiment on SF-295 CNS, greater than 86 µM; in the experiment with ACHN renal, greater than 100 µM; in the experiment on A498 renal, greater than 100 µM. Besides, the TGI with UACC-62 melanoma, with COLO 205 colon, with MDA-MB-435 and with A549 NSCLC was greater than 100 µM in each case.

For `CNC(=O)c1sc(-n2cnc3cc(OC)c(OC)cc32)cc1OCc1ccccc1C(F)(F)F`, the GI50 in the experiment with SK-MEL-28 melanoma was greater than 25 µM; with UACC-257 melanoma, greater than 25 µM; in the experiment with SR leukemia it was 9.49 µM; in the experiment on SF-295 CNS, greater than 21.4 µM; in the experiment on ACHN renal it was greater than 25 µM; with A498 renal it was 1.39 µM. Further, the GI50 in the experiment with UACC-62 melanoma was greater than 22.6 µM; in the experiment with COLO 205 colon it was greater than 25 µM; with MDA-MB-435 it was greater than 25 µM; with A549 NSCLC, greater than 25 µM. In addition, the TGI was greater than 25 µM in the experiment on SK-MEL-28 melanoma; greater than 25 µM with UACC-257 melanoma; greater than 25 µM in the experiment on SR leukemia; greater than 25 µM in the experiment with SF-295 CNS; greater than 25 µM with ACHN renal; greater than 24 µM in the experiment with A498 renal. Further, the TGI in the experiment with UACC-62 melanoma, with COLO 205 colon, in the experiment with MDA-MB-435 and in the experiment with A549 NSCLC was greater than 25 µM in each case.
